For one data set, the target named is T1, ASC (Mus musculus, UniProt Q9EPB4).
T1 construct: endogenous in cells; host or cells: mouse BMDMs primed with LPS and stimulated with ATP
T1 sequence (Q9EPB4 1-193): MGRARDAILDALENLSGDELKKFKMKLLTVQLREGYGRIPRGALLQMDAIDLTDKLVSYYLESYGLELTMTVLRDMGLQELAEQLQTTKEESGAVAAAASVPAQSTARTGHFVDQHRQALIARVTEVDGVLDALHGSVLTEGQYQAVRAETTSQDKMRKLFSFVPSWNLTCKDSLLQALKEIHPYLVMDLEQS
Put plainly: ASC oligomerization and ASC speck formation in BMDMs. It counts as cell-based. As for the experimental part:
The ASC oligomerization was performed using previously described methods (Yu et al., 2006, Cell. Death Differ. 13:236-249). BMDM were plated on chamber slides and allowed to attach overnight. The following day cells were primed with LPS and treated with ATP±BHB (10 mM) as described in the materials and methods. Cells were fixed with 4% paraformaldehyde followed by ASC (Enzo Lifesciences) and DAPI staining. ASC specks were quantified using ImageJ software. At least 5 distinct fields were analyzed and a minimum of 550 cells from each treatment condition were quantified. Data are shown as mean±SD and are representative of two independent experiments. Statistical differences were calculated by student's t-test.

Another data set concerns human monocytes. In words: Cytokine secretion from LPS stimulated human monocytes (ELISA). It counts as cell-based. The note with it: LPS (1 μg/mL) 4 h, increasing concentrations of BHB. As for the experimental part:
The cryopreserved peripheral blood monocuclear cells were used to sort CD14+ monocytes using isolation kit from Miltenyi (130-091-153). A total of 6 healthy subjects, ([…], […], person, person, […] and […]) were used for monocyte isolations. Monocytes were seeded in 6 well plates at concentration of 3 million/mL of RPMI1640 media with 10% FCS and antibiotic/antimycotic mixture and stimulated with LPS for 4 h. The supernatants were used to measure IL-1β, IL-18 and TNF using ELISA. Human peripheral blood was collected by the Health Apheresis Unit and the Clinical Core Laboratory, the National Institute on Aging-Intramural Research Program, under Human Subject Protocol #2003054 and Tissue Procurement Protocol #2003-071.
For orientation: ELISA stands for enzyme-linked immunosorbent assay.

Another data set has as its system human neutrophils. In words: IL-1β secretion from human peripheral blood neutrophils (ELISA). In kind it is cell-based. The note with it: peripheral blood neutrophils from adult (30-40 years) and old (65-75 years). As for the experimental part: BHB was also observed to inhibit IL1B production from human neutrophils irrespective of age. Peripheral blood neutrophils from adult (30-40 years) and old (65-75 years) were enriched and stimulated as indicated (FIG. 20). IL-1β secretion was measured in culture supernatants by ELISA. Data are expressed as mean±S.E.M (*p<0.01).

The conditions of data set [1]: due to increased clearance; literature; cited from earlier work.
The target in another data set is NLRP3 inflammasome (Mus musculus, UniProt Q8R4B8). Put plainly: IL-1β secretion from mouse neutrophils after NLRP3 activation (western blot). It counts as cell-based. The arrangement: endogenous in cells; host or cells: mouse bone marrow neutrophils (A15). On the procedure: Neutrophils from young (3 month) and aged (24 months) mice were stimulated with LPS, and the NLRP3 inflammasome was activated by treatment with ATP and C6 Ceramide. BHB was provided at the same time of ATP and ceramide treatment.
Adult and old neutrophils were analyzed for ketogenic and ketolytic enzyme expression. Gene expression was measured by RT-PCR (FIG. 14A). Expression was normalized to Gapdh expression and was represented as expression relative to adult gene expression. SCOT, HMGCL, and β-Actin protein expression were assessed in unstimulated adult and old neutrophils by Western blot (FIG. 14B). Dose response to BHB was measured by assaying IL-1β secretion in supernatants from adult neutrophils (FIG. 14C). Western blots were generated of IL-1β in supernatants from adult and old neutrophils stimulated with LPS+ATP or LPS+ceramide (FIG. 14D). In FIG. 14A, each dot represents a pooled sample of n=2 mice. In FIGS. 14B-14D, each blot is representative of at least two independent experiments. Each sample analyzed by Western blot is pooled from n=4-6 mice per experiment.
Adult neutrophils were stimulated with LPS+ATP+BHB to test the mechanism by which BHB blocks IL-1β secretion. LPS-primed neutrophils were stimulated with ATP in the presence of BHB or niacin (FIG. 15A). Supernatants were analyzed for IL-1β secretion by Western blot. Wildtype of mCAT neutrophils were stimulated with LPS+ATP+BHB (FIG. 15B). Supernatants were analyzed for IL-1β secretion by Western blot. Catalase and β-Actin expression were measured by Western blot in neutrophil cell lysates. LPS-primed neutrophils were stimulated with ATP+BHB in the presence of 3-MA or AOA as indicated (FIG. 15C). Supernatants were analyzed for IL-1β secretion by Western blot. The enantiomer S-BHB was tested in a dose response for the ability to inhibit inflammasome activation (FIG. 15D). Supernatants were analyzed for IL-1β secretion by Western blot. FCAS neutrophils were incubated with 4-OHT followed by LPS priming. […] Supernatants were analyzed for IL-1β secretion by Western blot. […]

This is an account of results in patent publication US20180008629A1, “Compositions and Methods for Treating NLRP3 Inflammasome-Related Diseases and Disorders” (priority 2015, published 2018).

NLRP3 inflammasome, sequence (Q8R4B8 whole entry): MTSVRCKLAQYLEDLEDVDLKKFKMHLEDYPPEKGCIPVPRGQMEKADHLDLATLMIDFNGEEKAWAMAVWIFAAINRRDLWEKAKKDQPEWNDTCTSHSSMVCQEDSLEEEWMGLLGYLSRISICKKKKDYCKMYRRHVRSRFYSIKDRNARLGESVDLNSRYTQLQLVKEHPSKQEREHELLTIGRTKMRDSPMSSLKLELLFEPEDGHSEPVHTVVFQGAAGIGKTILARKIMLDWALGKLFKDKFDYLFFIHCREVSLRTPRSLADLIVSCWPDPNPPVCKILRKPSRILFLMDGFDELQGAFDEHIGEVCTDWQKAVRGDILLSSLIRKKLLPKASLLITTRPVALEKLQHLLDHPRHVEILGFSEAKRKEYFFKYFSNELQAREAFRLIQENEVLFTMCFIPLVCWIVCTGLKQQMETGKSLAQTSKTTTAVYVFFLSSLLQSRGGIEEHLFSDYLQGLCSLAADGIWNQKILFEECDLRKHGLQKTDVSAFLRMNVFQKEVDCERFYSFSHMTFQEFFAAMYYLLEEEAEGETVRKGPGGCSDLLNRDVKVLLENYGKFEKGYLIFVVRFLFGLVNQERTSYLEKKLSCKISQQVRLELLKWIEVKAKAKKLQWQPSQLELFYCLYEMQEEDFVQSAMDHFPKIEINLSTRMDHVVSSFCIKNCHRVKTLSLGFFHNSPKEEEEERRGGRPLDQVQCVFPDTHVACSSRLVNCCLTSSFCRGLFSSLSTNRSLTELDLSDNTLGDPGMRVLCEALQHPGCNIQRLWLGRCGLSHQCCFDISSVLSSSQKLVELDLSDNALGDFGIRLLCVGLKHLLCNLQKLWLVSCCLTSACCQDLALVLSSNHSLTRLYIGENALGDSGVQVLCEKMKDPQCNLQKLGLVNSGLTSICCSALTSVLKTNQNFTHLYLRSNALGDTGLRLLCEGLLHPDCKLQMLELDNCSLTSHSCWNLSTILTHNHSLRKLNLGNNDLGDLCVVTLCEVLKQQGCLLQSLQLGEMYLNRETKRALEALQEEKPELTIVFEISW

In the case of `CC(O)CC(=O)O` (stereo not drawn) [BHB, β-hydroxybutyrate], at ASC (BMDMs primed with LPS (4 h), ATP and BHB 1 h, DSS cross-linked ASC), the “ASC oligomerization in response to NLRP3 ligand ATP” value is “prevented”. Besides, the ASC speck formation entry on ASC (BMDMs, LPS+ATP, BHB (10 mM)) is given as “prevented”. Moreover, in the data set on human monocytes, the IL-1β secretion entry is listed as “dose dependently inhibited”, the IL-18 secretion result is reported as “dose dependently inhibited” and the TNFα production entry was “without significantly affecting”. Further, the “IL1B production from human neutrophils” value in the data set with human neutrophils was “inhibit”. Moreover, the “serum concentration after administration” value in data set [1] is given as “insufficient to achieve sustained high serum concentration”. Besides, the “NLRP3 inflammasome activation in neutrophils” value on NLRP3 inflammasome (adult and old mouse neutrophils, LPS+ATP or LPS+ceramide, IL-1β in supernatants) was “inhibit”. Moreover, the “mechanism of inhibitory effects in neutrophils” value on NLRP3 inflammasome (adult neutrophils stimulated with LPS+ATP+BHB) is on record as “physically blocking inflammasome assembly”. The “IL-1β production after NLRP3 activation in neutrophils” value on NLRP3 inflammasome (neutrophils from young (3 month) and aged (24 month) mice, LPS, ATP and C6 Ceramide, 10 mM BHB) is listed as “blocks”.
